Where a name gives a salt, the structure may show the parent alone.
Tested on: MTT (mouse pheochromocytoma)
Test: IC50 of cell viability (ATP content)
Details: (24 or 48 h)
Method in brief: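 MTT mouse pheochromocytoma cells, cultured overnight at 37°C, 5% CO2 in DMEM with 5% FBS and 1% horse serum, were exposed in white 1536-well plates to library compounds in DMSO at final 0.5 nM to 46 µM (8 concentrations) for 24 or 48 hrs. CellTiter-Glo luminescence was normalised to positive-control (100%) and DMSO (0%) wells. A four-parameter logistic fit gave the IC50.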

| Structure (SMILES) | IC50 of cell viability |
| --- | --- |
| Cc1c[nH]c2ccccc12 [SKATOLUM] | > 46 µM |
| C=CCN1C[C@H](C)N([C@H](c2ccc(C(=O)N(CC)CC)cc2)c2cccc(OC)c2)C[C@H]1C [SNC 80] | > 46 µM |
| CCCC(=O)[O-] [SODIUM BUTYRATE] | > 46 µM |
| F[Si-2](F)(F)(F)(F)F [SODIUM HEXAFLUOROSILICATE] | > 46 µM |
| CCCCC(CC)CCC(CC(C)C)OS(=O)(=O)[O-] (configuration not stated) [SODIUM TETRADECYL SULFATE] | > 46 µM |
| OCC(O)C(O)C(O)C(O)CO (configuration not stated) [SORBITOL] | > 46 µM |
| O=C(CCCN1CCC2(CC1)C(=O)NCN2c1ccccc1)c1ccc(F)cc1 [SPIPERONE] | > 46 µM |
| O=C1NCN(c2ccccc2)C12CCN(CC1COc3ccccc3O1)CC2 (configuration not stated) [SPIROXATRINE] | > 46 µM |
| CCCCCCCCCCCCCCCCCCO [STEARLY ALCOHOL] | > 46 µM |
| N#Cc1c(N(CC(=O)[O-])CC(=O)[O-])sc(C(=O)[O-])c1CC(=O)[O-].O.O.O.O.O.O.O.[Sr+2].[Sr+2] [STRONTIUM RANELATE] | > 46 µM |
| ClCc1ccccc1.O=C1CC2OCC=C3CN4CCC56c7ccccc7N1C5[C@H]2[C@H]3C[C@H]46 (some centres not stated) [STRYCHNINE SULFATE] | > 46 µM |
| [H][C@]12C[C@@]3([H])C4=CCO[C@@H]5CC(=O)N6C([C@@]35[H])[C@]1(CC[N@@]2C4)C7=C6C=CC=C7 (some centres not stated) [STRYCHNINE] | > 46 µM |
| C(=C\c1ccncc1)/c1ccccc1 [STYRYLPYRIDINIUM CHLORIDE] | > 46 µM |
| CCC(C)(S(=O)(=O)CC)S(=O)(=O)CC [SULFONETHYLMETHANE] | > 46 µM |
| CCS(=O)(=O)C(C)(C)S(=O)(=O)CC [SULFONMETHANE] | > 46 µM |
| CN[S+](=O)([O-])Cc1ccc2[nH]cc(CCN(C)C)c2c1 [SUMATRIPTAN] | > 46 µM |
| Cc1ccc(C(=O)Nc2ccc(S(=O)(=O)O)c3cc(S(=O)(=O)O)cc(S(=O)(=O)O)c23)cc1NC(=O)c1cccc(NC(=O)Nc2cccc(C(=O)Nc3cc(C(=O)Nc4ccc(S(=O)(=O)O)c5cc(S(=O)(=O)O)cc(S(=O)(=O)O)c45)ccc3C)c2)c1 [SURAMIN] | > 46 µM |
| CCON=O [SWEET SPIRITS OF NITRE] | > 46 µM |
| C[N+]1([O-])[C@@H]2CC(OC(=O)[C@@H](CO)c3ccccc3)C[C@H]1[C@H]1O[C@H]12 (some centres not stated) [Scopolamin-N-oxide hydrobromide] | > 46 µM |
| Br.CN1[C@H]2C[C@H](OC(=O)[C@H](CO)c3ccccc3)C[C@H]1[C@H]1O[C@H]12.O.O.O [Scopolamine hydrobromide trihydrate] | > 46 µM |
| C#CCN(C)[C@@H](C)Cc1ccccc1 [Selegiline hydrochloride] | > 46 µM |
| Clc1ccc([C@H](Cn2ccnc2)OCc2csc3c(Cl)cccc23)c(Cl)c1 [Sertaconazole nitrate] | > 46 µM |
| C=CCN.Cl.ClC[C@H]1CO1 [Sevelamer hydrochloride] | > 46 µM |
| O.O.[Na+].[Na+].[O]=[Cr](=[O])([O-])[O][Cr](=[O])(=[O])[O-] [Sodium Dichromate Dihydrate] | > 46 µM |
| O.O=C([O-])CC([S][Au])C(=O)[O-].[Na+].[Na+] (configuration not stated) [Sodium aurothiomalate hydrate] | > 46 µM |
| O=c1[n-]c(=O)n(Cl)c(=O)n1Cl [Sodium dichloroisocyanurate] | > 46 µM |
| CCCCCCCCCCCCOS(=O)(=O)[O-] [Sodium dodecyl sulfate] | > 46 µM |

Next, values leading:

| IC50 of cell viability | Structure (SMILES) |
| --- | --- |
| > 46 µM | CSCC[C@H](NC(=O)[C@@H](Cc1ccc(O[S+](=O)([O-])O)cc1)NC(=O)[C@H](N)CC(=O)O)C(=O)NCC(=O)N[C@@H](Cc1c[nH]c2ccccc12)C(=O)N[C@H](CCSC)C(=O)N[C@H](CC(=O)O)C(=O)N[C@@H](Cc1ccccc1)C(N)=O [SINCALIDE] |
| > 46 µM | CC(C)(C)C(=O)Oc1ccc([S+](=O)([O-])Nc2ccccc2C(=O)NCC(=O)[O-])cc1.O.O.O.O.[Na+] [SIVELESTAT SODIUM HYDRATE] |
| > 46 µM | O=C(O)CCCc1ccccc1 [SODIUM PHENYLBUTYRATE] |
| > 46 µM | O=P(O)(O)OP(=O)(O)OP(=O)(O)O.[NaH] [SODIUM TRIPOLYPHOSPHATE] |
| > 46 µM | O=C(O[C@H]1CN2CCC1CC2)N1CCc2ccccc2[C@@H]1c1ccccc1 [SOLIFENACIN SUCCINATE] |
| > 46 µM | CC(N)C(=O)NCC(=O)NC1CSSCC(C(=O)O)NC(=O)C(CO)NC(=O)C(C(C)O)NC(=O)C(Cc2ccccc2)NC(=O)C(C(C)O)NC(=O)C(CCCCN)NC(=O)C(Cc2c[nH]c3ccccc23)NC(=O)C(Cc2ccccc2)NC(=O)C(Cc2ccccc2)NC(=O)C(CC(N)=O)NC(=O)C(CCCCN)NC1=O (configuration not stated) [SOMATOSTATIN] |
| > 46 µM | CCCCCCCCCCCCCCCC(=O)OC[C@H](O)[C@H]1OC[C@@H](O)[C@@H]1O [SORBITAN MONOPALMITATE] |
| > 46 µM | CCCCCCCCCCCC(=O)OCC(O)C1OCC(O)C1O (configuration not stated) [SORBITANI LAURAS] |
| > 46 µM | CC(C)NCC(O)c1ccc(N[S+](C)(=O)[O-])cc1 (configuration not stated) [SOTALOL] |
| > 46 µM | CC(=O)N[C@@H](CC(=O)O)C(=O)N[C@@H](CCC(=O)O)C(=O)O [SPAGLUMIC ACID] |
| > 46 µM | CC1CN(c2c(F)c(N)c3c(=O)c(C(=O)O)cn(C4CC4)c3c2F)CC(C)N1 (configuration not stated) [SPARFLOXACIN] |
| > 46 µM | CC(C)=CCC/C(C)=C/CC/C(C)=C/CC/C=C(\C)CC/C=C(\C)CCC=C(C)C [SQUALENE] |
| > 46 µM | O=C(O)CCC(=O)O [SUCCINIC ACID] |
| > 46 µM | CC1(C)SC2C(NC(=O)C(c3ccccc3)S(=O)(=O)[O-])C(=O)N2C1C(=O)[O-] (configuration not stated) [SULBENICILLIN DISODIUM] |
| > 46 µM | Cc1nc(N[S+](=O)([O-])c2ccc(N)cc2)nc(C)c1Br [SULFABROMOMETHAZINE SODIUM] |
| > 46 µM | NC(=O)NS(=O)(=O)c1ccc(N)cc1 [SULFACARBAMIDUM] |
| > 46 µM | COc1cc(N[S+](=O)([O-])c2ccc(N)cc2)nc(C)n1 [SULFAMETOMIDINE] |
| > 46 µM | CC(=O)Nc1ccc([S+](=O)([O-])Nc2ccc([N+](=O)[O-])cc2)cc1 [SULFANITRAN] |
| > 46 µM | N[S+](=O)([O-])c1ccc(NC(=O)CCC(=O)O)cc1 [SULFASUCCINAMIDUM] |
| > 46 µM | NC(=S)N[S+](=O)([O-])c1ccc(N)cc1 [SULFATOLAMIDE] |

| IC50 of cell viability | Structure (SMILES) |
| --- | --- |
| > 46 µM | O=C1OC(c2ccc(O)c([S+](=O)([O-])O)c2)(c2ccc(O)c([S+](=O)([O-])O)c2)c2c(Br)c(Br)c(Br)c(Br)c21 (configuration not stated) [SULFOBROMOPHTHALEIN SODIUM] |
| > 46 µM | COc1cc([S+](C)[O-])ccc1-c1nc2ncccc2[nH]1 (configuration not stated) [SULMAZOLE] |
| > 46 µM | CCCCCCCCNC(C)C(O)c1ccc(SC(C)C)cc1 (configuration not stated) [SULOCTIDIL] |
| > 46 µM | CCOCC(O)COc1ccc(NC(=O)CC[S+](C)C)cc1 (configuration not stated) [SUPLATAST TOSILATE] |
| > 46 µM | CC(=O)NC(=O)c1ccccc1O [Salacetamida] |
| > 46 µM | O=C(O)c1cc(/N=N/c2ccc([S+](=O)([O-])Nc3ccccn3)cc2)ccc1O [Salicylazosulfapyridine] |
| > 46 µM | O=C(O)c1ccccc1O [Salicylic acid] |
| > 46 µM | OCc1cc(C(O)CNCCCCCCOCCCCc2ccccc2)ccc1O (configuration not stated) [Salmeterol] |
| > 46 µM | CC(O)C(O)[C@H]1CNc2nc(N)nc(O)c2N1 (some centres not stated) [Sapropterin] |
| > 46 µM | CC(C)(C)NC(=O)[C@@H]1C[C@@H]2CCCC[C@@H]2CN1C[C@@H](O)[C@H](Cc1ccccc1)NC(=O)[C@H](CC(N)=O)NC(=O)c1ccc2ccccc2n1 [Saquinavir Mesylate] |
| > 46 µM | N#C[C@@H]1C[C@@H]2C[C@@H]2N1C(=O)[C@@H](N)C12CC3CC(CC(O)(C3)C1)C2 [Saxagliptin] |
| > 46 µM | Cn1cnc2c(F)c(Nc3ccc(Br)cc3Cl)c(C(=O)NOCCO)cc21 [Selumetinib] |
| > 46 µM | CCN(CC)CCNC(=O)c1ccc(N[S+](C)(=O)[O-])cc1.Cl.O [Sematilide monohydrochloride monohydrate] |
| > 46 µM | O=C1NCCN1CCN1CCC(c2cn(-c3ccc(F)cc3)c3ccc(Cl)cc23)CC1 [Sertindole] |
| > 46 µM | CN/C(=N\c1ccc(C2=NNC(=O)CC2C)cc1)NC#N (configuration not stated) [Siguazodan] |
| > 46 µM | CCCc1nn(C)c2c(O)nc(-c3cc([S+](=O)([O-])N4CCN(C)CC4)ccc3OCC)nc12 [Sildenafil citrate] |
| > 46 µM | COc1cc([C@H]2Oc3cc([C@H]4Oc5cc(O)cc(O)c5C(=O)[C@@H]4O)ccc3O[C@@H]2CO)ccc1O [Silibinin] |
| > 46 µM | CCC(C)(C)C(=O)O[C@@H]1C[C@H](C)\C=C2\C=C/[C@H](C)[C@@H](CC[C@H]3C[C@@H](O)CC(=O)O3)[C@@H]12 [Simvastatin] |
| > 46 µM | CN[C@H]1[C@@H](O)[C@@H](OC[C@@]1(C)O)O[C@@H]2[C@H](N)C[C@H](N)[C@H](O[C@@H]3O\C(=C/C[C@H]3N)CN)[C@H]2O [Sisomicin sulfate] |
| > 46 µM | N[C@@H]1CN(CC12CC2)C3=C(F)C=C4C(=O)\C(=C/N([C@@H]5C[C@@H]5F)C4=C3Cl)C(O)=O [Sitafloxacin] |

Reference: the supplement of paper PMC3974653
